Reference: patent US12295962B2, “Polymorphic compounds and uses thereof” (AskAt Inc., priority 2018, dated 2025)

Columns and labels:
Format in all cases: in vivo, BALB/c mice
[1] = tested on: 4T1 mouse breast cancer; assay: Anti-tumor activity in the 4T1 model, additional experiment (with anti-PD1, 7 mice per cohort); details: during the period of dosing; Compound B 15 mg/kg BID; compared with vehicle group and anti-PD1 dosed alone; FIG. 27
Description: (§1) The antitumor activity of Compound B as a single agent and combined with a mouse anti-PD1 antibody was evaluated in the 4T1 mouse breast cancer model grown in BALB/c mice in an additional experiment. Mice were inoculated subcutaneously in the right flank with 3×10^5 tumor cells. When tumors reached an average size of 97 mm^3 dosing was initiated. The dosing regimens in the 4 separate cohorts comprising 7 mice each are as follows: […]

[2] = tested on: CT-26 mouse colon adenocarcinoma; assay: Anti-tumor activity in the CT-26 model, additional experiment (with anti-PD1, 7 mice per cohort); details: during the period of dosing; single agents (Compound B 15 mg/kg BID p.o.; anti-PD1 10 mg/kg BIW i.p.); compared with vehicle group; FIG. 26
Description: as §1, with “CT-26” for “4T1”, “colon adenocarcinoma” for “breast cancer”, “5×10^5” for “3×10^5”, “91” for “97”

[3] = tested on: 4T1 mouse breast cancer; assay: Anti-tumor activity in the 4T1 breast cancer mouse model (with anti-CTLA4)
Description: The antitumor activity of Compound B (as described in example 14 above) as a single agent and combined with a mouse anti-CTLA4 antibody was evaluated in the 4T1 mouse breast cancer model grown in BALB/c mice. Mice were inoculated subcutaneously in the right flank with 3×10^5 tumor cells. When tumors reached an average size of 100 mm^3 (7 days after tumor cell inoculation) dosing was initiated.

[4] = tested on: CT-26 mouse colon adenocarcinoma; assay: Anti-tumor activity in the CT-26 colon adenocarcinoma mouse model (with anti-PD-1, 10 mice per cohort); details: for tumor growth kinetics: during the period of dosing, compared with vehicle treated mice, FIG. 22
Description: The antitumor activity of Compound B as a single agent and combined with a mouse anti-PD-1 antibody was evaluated in the CT-26 mouse colon adenocarcinoma model grown in BALB/c mice. Mice were inoculated subcutaneously in the right flank with 5×10^5 tumor cells.
When tumors reached an average size of 71 mm^3 (6 days after tumor cell inoculation) dosing was initiated. The dosing regimens in the 8 separate cohorts comprising 10 mice each are as follows: […]

[5] = tested on: immune cells of CT-26 tumors; assay: Immune cell composition of CT-26 tumors by multi-color flow cytometry; details: after 7 days dosing, Compound B 15 mg/kg BID p.o., anti-PD1 10 mg/kg Q3D i.p., vs vehicle
Description: The immune cell composition of Compound B (as described in example 14 above) as a single agent and combined with a mouse anti-PD1 antibody was evaluated in the CT-26 mouse colon adenocarcinoma model grown in BALB/c mice. Mice were inoculated subcutaneously in the right flank with 5×10^5 tumor cells. When tumors reached an average size of 85 mm^3 dosing was initiated. The dosing regimens in the 4 separate cohorts comprising 10 mice each are listed as follows:
After dosing animals for 7 days, tumors were resected and used to prepare single cell suspensions. Live cells representing tumor and immune cells were stained with cocktails of antibodies targeting multiple immune cell markers (anti-CD45, anti-CD3, anti-CD4, anti-CD8, anti-CD25, anti-FoxP3, anti-PD-1, anti-CD11c) conjugated to different fluorescent tags. The stained cells were fixed in 4% paraformaldehyde and quantified using a multi-color flow cytometer (Fortessa). The data was analyzed with FloJo software.

[6] = 99 days after tumor inoculation, 10 mice per cohort

## C[C@H](NC(=O)c1cc(Cl)cnc1Oc1cccc(F)c1)c1ccc(C(=O)O)cc1 [Compound B]
[1]
  tumor growth kinetics: less than that of the vehicle group and anti-PD1 when dosed alone
[2]
  tumor growth kinetics: less than that of the vehicle group
[3]; 47 days after tumor inoculation, 10 mice per group
  mice still alive: none
[3]; during the period of dosing, single agents (Compound B 15 mg/kg BID; anti-CTLA4), relative to vehicle treated mice, FIG. 24
  tumor growth kinetics: decreased relative to the vehicle treated mice
[4]; [6]
  mice still alive: 1 out of 10
  mice tumor free: 1 out of 10
[4]; 15 mg/kg BID p.o.
  tumor growth kinetics: not notably different
[4]; 15 mg/kg QD p.o.
  tumor growth kinetics: not notably different
[5]; FIG. 28a
  regulatory T cells (CD45, CD4, FoxP3, CD25 positive) in tumor: significant decrease
[5]; FIG. 28b
  percentage of dendritic cells (CD45, CD11c positive) in tumor: increased percentage
[5]; FIG. 28c
  percentage of activated T cells (CD45, CD3, CD8; CD25 expression) in tumor: did not
